Calls of active or inactive are those of the source. The rule behind the calls is not given here.

For the test, the system named is parental cell line counter screen, S1P1 agonist assay readout. Nature of the test: signal in parental cells, counter-screen for S1P1 agonist project (AID 467;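 note: agonist potency measured against forskolin stimulation plus an EC20 level of SEW2871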). (In general: The purpose of a counterscreen is to sort out artefacts and off-target activity.)
`CCn1nc(-c2cccs2)nc2c(=O)n(C)c(=O)nc1-2`: the EC50 is 12.3 µM (inactive).

Regarding `CC(C)(C)SCCNS(=O)(=O)c1ccccc1`, the EC50 was > 95.1 µM (inactive).

As for `CCCc1cc(C(=O)Nc2sc(C)c(CC)c2C#N)no1`, the EC50 is > 95.1 µM (inactive).

Regarding `Cn1c(-c2c(N)n(C3CCCC3)c3nc4ccccc4nc23)nc2ccccc21`, the EC50 is 1.96 µM.

For `Cc1ccc(S(=O)(=O)Nc2cccc3ncccc23)s1`, the EC50 is > 95.1 µM (inactive).

Regarding `c1ccc(CSc2nnc(-c3cccs3)o2)cc1`, the EC50 was > 95.1 µM (inactive).

Turning to `O=C(Nc1ccc(OC(F)F)c(Cl)c1)Nc1ccc2c(c1)OCO2`, the EC50 is > 10 µM (inactive).

Regarding `Cc1ccc(NC(=O)c2cc(-c3ccco3)on2)cc1C`, the EC50 was > 95.1 µM (inactive).

As for `Oc1ccc(N2CCN(c3ncnc4sc5c(c34)CCC5)CC2)cc1`, the EC50 was > 95.1 µM (inactive).

On to `O=S1(=O)C=C(Sc2nc3ccccc3s2)c2ccccc21`, for which the EC50 is 1.26 µM.

Regarding `Cc1noc(C)c1S(=O)(=O)N(CC(=O)Nc1ccc2c(c1)OCO2)c1ccc(C(C)C)cc1`, the EC50 is > 95.1 µM (inactive).

For `C/C(N)=C(/C#N)C(=O)CSc1nc2cc(Cl)ccc2s1`, the EC50 was 49.5 µM (inactive).

Consider `Cc1nnc(SCC(=O)N2CCC(c3noc4ccc(F)cc34)CC2)s1`, for which the EC50 was > 95.1 µM (inactive).

On to `Cc1ccc2oc(-c3ccc(NC(=O)c4cccnc4)cc3)nc2c1`, for which the EC50 is > 95.1 µM (inactive).

For `COc1ccc(-c2nc(-c3ccc(Br)o3)no2)cc1OC`, the EC50 was > 95.1 µM (inactive).

As for `COc1cc2c(cc1OC)C(C)N(C(=O)c1cc3ccccc3o1)CC2` (stereo unspecified), the EC50 is > 95.1 µM (inactive).

`Cc1ccc(C(=O)c2cncc(Br)c2)cc1`: the EC50 is > 95.1 µM (inactive).

Regarding `CCN(C(=O)C1CCCCC1)c1nnc(-c2cccnc2)s1`, the EC50 is > 95.1 µM (inactive).

`CN1CCN(C(=O)CSc2nc(-c3cccs3)cc(-c3cccs3)c2C#N)CC1`: the EC50 was 19.7 µM (inactive).

With `COc1cccc2sc(Nc3nc(-c4ccccn4)cs3)nc12`, the EC50 is 8.08 µM.

With `CCCN(C(=O)c1cccs1)c1nnc(-c2ccncc2)s1`, the EC50 was > 95.1 µM (inactive).

As for `COc1ccc(/C(O)=C2/C(=O)C(=O)N(CC3CCCO3)C2c2cccc(OC)c2)cc1` (stereo unspecified), the EC50 was > 95.1 µM (inactive).

As to `Oc1ccc(-c2nnc(SCC3CCCCC3)o2)cc1`, the EC50 was > 10 µM (inactive).

As for `CCOc1ccc(-c2nnc(-c3cccnc3)o2)cc1OCC`, the EC50 was > 95.1 µM (inactive).

For `O=S1(=O)C=C(Sc2nnc(-c3ccccc3)o2)c2ccccc21`, the EC50 is 3.16 µM.

`Cc1cc(C(=O)CSc2nnnn2-c2ccc(O)cc2)c(C)n1Cc1ccc2c(c1)OCO2`: the EC50 was 11.9 µM (inactive).

For the compound `CCOc1ccc(C(C)=O)cc1N1C(=O)C2C3C=CC(O3)C2C1=O` (stereo unspecified), the EC50 is 4.31 µM.

For the compound `O=C(CSC1=NCCS1)Nc1ccnc2ccccc12`, the EC50 is 11.1 µM (inactive).

As to `C/C(N)=C(/C#N)C(=O)CSc1nnc(SCc2ccc(Cl)cc2)s1`, the EC50 is > 95.1 µM (inactive).

On to `N#Cc1nc(COc2ccc(Cl)cc2Cl)oc1N1CCN(c2ccccc2)CC1`, for which the EC50 is > 95.1 µM (inactive).

In the case of `Cc1cc(N2CCN(C/C=C/c3ccccc3)CC2)n2ncnc2n1`, the EC50 is > 95.1 µM (inactive).

Regarding `CC(=O)Nc1ccc(S(=O)(=O)N2CCN(c3cccc(C)c3C)CC2)cc1`, the EC50 was 36.5 µM (inactive).

Turning to `O=C(Nc1ccc(N2CCOCC2)c(Cl)c1)c1cccc(F)c1`, the EC50 was > 95.1 µM (inactive).

Turning to `CCC(=NCCOc1ccc(Cl)cc1)c1c(O)n(C)c(=O)n(C)c1=O`, the EC50 was 18.9 µM (inactive).

On to `Cc1ccc(S(=O)(=O)Nc2ccc3ncccc3c2)cc1`, for which the EC50 was > 30 µM (inactive).

On to `CCOC(=O)N1CCN(C(=O)C2CCN(c3ncnc4c3sc3cccc(F)c34)CC2)CC1`, for which the EC50 is 24.2 µM (inactive).

Broadly, the EC50 is the concentration that produces a half-maximal response.

Values taken from PubChem BioAssay AID467 (The Scripps Research Institute Molecular Screening Center, 2006).
